What was measured:
MAGL [1] = molecular target: T1, MAGL (Homo sapiens, UniProt Q99685); assay: In vitro competitive activity-based protein profiling, PC3 human cell membrane proteomes; assay type: biochemical; design: endogenous in cells; host or cells: PC3 human cells (membrane proteome); conditions: human PC3 membrane proteome; for inhibition at 1 µM: read-out: MAGL % inh. 1 μM (human PC3)
T1 sequence (Q99685 1-303): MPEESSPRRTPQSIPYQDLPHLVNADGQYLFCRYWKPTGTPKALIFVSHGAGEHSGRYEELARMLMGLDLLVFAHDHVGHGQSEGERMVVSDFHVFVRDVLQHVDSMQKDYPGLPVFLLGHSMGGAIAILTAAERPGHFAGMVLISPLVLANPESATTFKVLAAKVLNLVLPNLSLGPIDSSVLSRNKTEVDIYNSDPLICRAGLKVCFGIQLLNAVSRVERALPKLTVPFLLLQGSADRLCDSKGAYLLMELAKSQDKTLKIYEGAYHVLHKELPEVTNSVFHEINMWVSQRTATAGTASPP
Summary of the method: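 Competitive ABPP in PC3 membrane proteome (2.0 mg/mL protein): inhibitors preincubated 30 min at 37° C, then JW912-Bodipy probe added for 30 min at room temperature. MAGL band fluorescence after SDS-PAGE normalised to DMSO; IC50 from 4-parameter sigmoidal fit.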

MAGL [2] = molecular target: T1, MAGL; assay: In vitro competitive substrate hydrolysis enzyme activity assay (pNPA), HEK293 cell lysates; assay type: biochemical; design: expressed in transfected cells; host or cells: HEK293; conditions: HEK293 lysate
Description: HEK293 cell lysates expressing recombinant human MAGL enzyme and 4-nitrophenyl acetate (pNPA) substrate were diluted separately in 50 mM HEPES (pH 7.0) containing 200 mM KCl and 1 mM EDTA. Lysates (50 μL, ˜1.2 μg total protein) were preincubated with varying concentrations of inhibitors at 25° C. After 30 min, 2×pNPA substrate (50 μL, 2.5 mM) was added and the rate of substrate turnover was monitored by measuring the increase in absorbance at wavelength 405 nm for 20 minutes at 25° C. using a Biotek Neo2 plate reader. The mean velocity was converted to percent enzyme activity following background subtraction and normalization to DMSO controls. IC50 values were determined by fitting percent enzyme activities to a non-linear regression, 4-parameter, sigmoidal dose response function in Prism GraphPad.

Row | inhibition at 1 µM (MAGL [1]) [%] | IC50 (MAGL [2]) [µM] | IC50 (MAGL [1]) [µM] | Structure (SMILES)
1 | 100 | 0.148 |  | O=C(OC(C(F)(F)F)C(F)(F)F)N1CCC2(CC1)CC2C(=O)N1CCN(C2CC2)CC1 (racemic) [Example 34, 1,1,1,3,3,3-Hexafluoropropan-2-yl (±)1-(4-cyclopropylpiperazine-1-carbonyl)-6-azaspiro[2.5]octane-6-carboxylate]
2 | 90 | 0.862 | 0.4 | O=C(OC(C(F)(F)F)C(F)(F)F)N1CCC2(CC1)CC2C(=O)N1CCn2c(nnc2C2CC2)C1 (racemic) [Example 185, 1,1,1,3,3,3-hexafluoropropan-2-yl (+)1-(3-cyclopropyl-5,6,7,8-tetrahydro-[1,2,4]triazolo[4,3-a]pyrazine-7-carbonyl)-6-azaspiro[2.5]octane-6-carboxylate]
3 | 100 | 0.168 |  | O=C(OC(C(F)(F)F)C(F)(F)F)N1CCC2(CC1)CC2C(=O)N1CCn2ccnc2C1 (racemic) [Example 186, 1,1,1,3,3,3-hexafluoropropan-2-yl (+)1-(5,6,7,8-tetrahydroimidazo[1,2-a]pyrazine-7-carbonyl)-6-azaspiro[2.5]octane-6-carboxylate]
4 | 100 | 0.143 | 0.11 | O=C(OC(C(F)(F)F)C(F)(F)F)N1CCC2(CC1)CC2C(=O)N1CCc2cncnc2C1 (racemic) [Example 187, 1,1,1,3,3,3-hexafluoropropan-2-yl (+)1-(5,6,7,8-tetrahydropyrido[3,4-d]pyrimidine-7-carbonyl)-6-azaspiro[2.5]octane-6-carboxylate]
5 | 100 | 0.249 | 0.12 | CN(C(=O)C1CC12CCN(C(=O)OC(C(F)(F)F)C(F)(F)F)CC2)c1cccnn1 (racemic) [Example 188, 1,1,1,3,3,3-hexafluoropropan-2-yl (+)1-(methyl(pyridazin-3-yl)carbamoyl)-6-azaspiro[2.5]octane-6-carboxylate]
6 | 100 | 0.435 | 0.127 | O=C(Nc1cccnc1)[C@@H]1CC12CCN(C(=O)OC(C(F)(F)F)C(F)(F)F)CC2 (single isomer, unassigned) [Example 3]
7 | 100 | 0.0993 | 0.032 | CN(C(=O)[C@@H]1CC12CCN(C(=O)OC(C(F)(F)F)C(F)(F)F)CC2)c1cnccn1 (single isomer, unassigned) [Example 11]
8 | 100 | 0.102 |  | CN(C(=O)[C@H]1CC12CCN(C(=O)OC(C(F)(F)F)C(F)(F)F)CC2)c1cnccn1 (single isomer, unassigned) [Example 12]
9 | 100 | 0.00421 | 0.001 | O=C(Nc1ccnc(C(F)(F)F)n1)[C@H]1CC12CCN(C(=O)OC(C(F)(F)F)C(F)(F)F)CC2 (single isomer, unassigned) [Example 17]
10 | 100 | 0.053 | 0.039 | O=C(Nc1ccnc(C(F)(F)F)n1)[C@@H]1CC12CCN(C(=O)OC(C(F)(F)F)C(F)(F)F)CC2 (single isomer, unassigned) [Example 18]
11 | 100 | 0.243 |  | CN(C(=O)C1CC12CCN(C(=O)OC(C(F)(F)F)C(F)(F)F)CC2)c1cccnc1 (single isomer, unassigned) [Example 42, 1,1,1,3,3,3-hexafluoropropan-2-yl (R or S)-1-(methyl(pyridin-3-yl)carbamoyl)-6-azaspiro[2.5]octane-6-carboxylate]
12 |  | 0.244 | 0.04 | CN(C(=O)C1CC12CCN(C(=O)OC(C(F)(F)F)C(F)(F)F)CC2)c1cccnc1 (single isomer, unassigned) [Example 43, 1,1,1,3,3,3-hexafluoropropan-2-yl (R or S)-1-(methyl(pyridin-3-yl)carbamoyl)-6-azaspiro[2.5]octane-6-carboxylate]
13 | 100 | 0.06 | 0.014 | CN(C(=O)C1CC12CCN(C(=O)OC(C(F)(F)F)C(F)(F)F)CC2)c1ccccn1 (single isomer, unassigned) [Example 45, 1,1,1,3,3,3-hexafluoropropan-2-yl (R or S)-1-(methyl(pyridin-2-yl)carbamoyl)-6-azaspiro[2.5]octane-6-carboxylate]
14 | 100 | 0.139 |  | O=C(Nc1ccccn1)C1CC12CCN(C(=O)OC(C(F)(F)F)C(F)(F)F)CC2 (single isomer, unassigned) [Example 48, 1,1,1,3,3,3-hexafluoropropan-2-yl (R or S)-1-(pyridin-2-ylcarbamoyl)-6-azaspiro[2.5]octane-6-carboxylate]
15 | 100 | 0.0232 | 0.0048 | O=C(OC(C(F)(F)F)C(F)(F)F)N1CCC2(CC1)CC2C(=O)N1CCn2cc(C(F)(F)F)nc2C1 (single isomer, unassigned) [Example 51, 1,1,1,3,3,3-hexafluoropropan-2-yl (R or S)-1-(2-(trifluoromethyl)-5,6,7,8-tetrahydroimidazo[1,2-a]pyrazine-7-carbonyl)-6-azaspiro[2.5]octane-6-carboxylate]
16 | 100 | 0.111 |  | O=C(Nc1cnccn1)C1CC12CCN(C(=O)OC(C(F)(F)F)C(F)(F)F)CC2 (single isomer, unassigned) [Example 54, 1,1,1,3,3,3-hexafluoropropan-2-yl (R or S)-1-(pyrazin-2-ylcarbamoyl)-6-azaspiro[2.5]octane-6-carboxylate]
17 | 100 | 0.00473 | 0.0017 | O=C(OC(C(F)(F)F)C(F)(F)F)N1CCC2(CC1)CC2C(=O)N1CCc2cnc(C(F)(F)F)nc2C1 (single isomer, unassigned) [Example 57, 1,1,1,3,3,3-hexafluoropropan-2-yl (R or S)-1-(2-(trifluoromethyl)-5,6,7,8-tetrahydropyrido[3,4-d]pyrimidine-7-carbonyl)-6-azaspiro[2.5]octane-6-carboxylate]
18 |  | 0.138 | 0.049 | O=C(OC(C(F)(F)F)C(F)(F)F)N1CCC2(CC1)CC2C(=O)N1CCc2cnc(C(F)(F)F)nc2C1 (single isomer, unassigned) [Example 58, 1,1,1,3,3,3-hexafluoropropan-2-yl (R or S)-1-(2-(trifluoromethyl)-5,6,7,8-tetrahydropyrido[3,4-d]pyrimidine-7-carbonyl)-6-azaspiro[2.5]octane-6-carboxylate]
19 |  | 0.0854 | 0.036 | O=C(OC(C(F)(F)F)C(F)(F)F)N1CCC2(CC1)CC2C(=O)N1CCc2ncncc2C1 (single isomer, unassigned) [Example 60, 1,1,1,3,3,3-hexafluoropropan-2-yl (R or S)-1-(5,6,7,8-tetrahydropyrido[4,3-d]pyrimidine-6-carbonyl)-6-azaspiro[2.5]octane-6-carboxylate]
20 | 100 | 0.0169 | 0.007 | O=C(OC(C(F)(F)F)C(F)(F)F)N1CCC2(CC1)CC2C(=O)N1CCc2nc(C3CC3)ncc2C1 (single isomer, unassigned) [Example 63, 1,1,1,3,3,3-hexafluoropropan-2-yl (R or S)-1-(2-cyclopropyl-5,6,7,8-tetrahydropyrido[4,3-d]pyrimidine-6-carbonyl)-6-azaspiro[2.5]octane-6-carboxylate]
21 | 100 | 0.00102 | 0.0042 | O=C(Nc1cncc(Cl)c1)C1CC12CCN(C(=O)OC(C(F)(F)F)C(F)(F)F)CC2 (single isomer, unassigned) [Example 66, 1,1,1,3,3,3-hexafluoropropan-2-yl (R or S)-1-((5-chloropyridin-3-yl)carbamoyl)-6-azaspiro[2.5]octane-6-carboxylate]
22 | 100 | 0.00617 |  | O=C(Nc1cccc(C(F)(F)F)n1)C1CC12CCN(C(=O)OC(C(F)(F)F)C(F)(F)F)CC2 (single isomer, unassigned) [Example 72, 1,1,1,3,3,3-hexafluoropropan-2-yl (R or S)-1-((6-(trifluoromethyl)pyridin-2-yl)carbamoyl)-6-azaspiro[2.5]octane-6-carboxylate]
23 |  | 0.736 |  | O=C(Nc1cnc(C(F)(F)F)nc1)C1CC12CCN(C(=O)OC(C(F)(F)F)C(F)(F)F)CC2 (single isomer, unassigned) [Example 100, 1,1,1,3,3,3-hexafluoropropan-2-yl (R or S)-1-((2-(trifluoromethyl)pyrimidin-5-yl)carbamoyl)-6-azaspiro[2.5]octane-6-carboxylate]

Row | Structure (SMILES) | inhibition at 1 µM (MAGL [1]) [%] | IC50 (MAGL [2]) [µM] | IC50 (MAGL [1]) [µM]
24 | O=C(Nc1cncc(F)c1)C1CC12CCN(C(=O)OC(C(F)(F)F)C(F)(F)F)CC2 (single isomer, unassigned) [Example 39, 1,1,1,3,3,3-hexafluoropropan-2-yl (R or S)-1-((5-fluoropyridin-3-yl)carbamoyl)-6-azaspiro[2.5]octane-6-carboxylate] | 90 | 0.319 | 0.29

Reference: patent US20240018120A1, “MAGL INHIBITORS” (H. LUNDBECK A/S, priority 2020, published 2024)
